# Source: patent US4097487A, “Pyrrolidinyl and piperidinyl benzamide derivatives” (Yamanouchi Pharmaceutical Co., Ltd., priority 1975, dated 1978)
# Structures can show the parent of a compound that is named as a salt. Where two headings read alike, the source gives them in different places.
# Tests used:
# [1] = system: apomorphine-induced stereotyped behavior; experiment: Activity of reducing the apomorphine-induced stereotyped behavior (Experiment I); assay type: in vivo, rat (male, Wistar); conditions: sc, read-out: ED50, activity of reducing apomorphine-induced stereotyped behavior
# [2] = Cataleptogenic activity (Experiment III a); design: species or system mouse (male, ICR); conditions: in vivo, sc; mouse, 30 min, fore-limbs hung on horizontal rod for 30 second
# Procedure: (a) Cataleptogenic activity:
# By referring to the method by Curvoisier et al (Psychotropic drugs, 373(1957)), a test sample was subcutaneously administered to mice (male, ICR, 8 weeks age) and after 30 minutes since then, the both fore-limb was forcibly hung on a horizontal metallic rod of 2 mm. diameter placed at a height of 6 cm. and when the mouse was kept in that state for 30 second, the activity of the mouse was considered to be a positive cataleptogenic activity. From the relation of the ratio of inhibition and the amount of the test sample used, ED50 was determined.
# [3] = system: conditioned avoidance response; experiment: Activity of reducing the conditioned avoidance response, shuttle box (Experiment II a); assay type: in vivo, rat (male, Wister); conditions: sc, read-out: ED50, activity of reducing the conditioned avoidance response
# Procedure: (a) Activity of reducing the conditioned avoidance response:
# By a shuttle box method using rats (male, Wister, about 300 g.), a test sample was administered subcutaneously to the rats, after 30 minutes, a conditioned stimulation (buzzer noise for at longest 5 seconds) was applied, and then the avoidance response was observed. Then, from the relation of the ratio of inhibition of avoidance response and the amount of the test sample used, ED50 was determined. In addition, the training of applying an electric stimulation (A.C. 40 volts) as an unconditioned stimulation from a grid on a floor for at longest 5 seconds was applied to rats at 20 times/day for 6 days and the rats showing the ratio of avoidance response of higher than 80% were used in the experiment.
# [4] = Acute toxicity, up-down method (Experiment III b); conditions: in vivo, iv, mouse
# Procedure: A test sample was administered to mice (male, ICR, 8 week age) by an intravenous injection and then LD50 was determined by an up-down method.
# [5] = system: methamphetamin-induced stereotyped behavior; experiment: Activity of reducing the methamphetamin-induced stereotyped behavior (Experiment II b); assay type: in vivo, rat (male, Wister); conditions: sc, read-out: ED50, activity of reducing the methamphetamin-induced stereotyped behavior
# Procedure: (b). Activity of reducing the methamphetamin-induced stereotyped behavior:
# A test sample was administered subcutaneously to the rats, after 30 minutes, 5 mg./kg. of methamphetamine was administered intraperitoneally, and then after 60 minutes and 90 minutes since then, the symptom of the methamphetamin-induced stereotyped behavior was observed. From the relation of the ratio of inhibition and the amount of the test sample used, ED50 was determined.
# [6] = according to the Dutch patent; cited from earlier work
# [7] = rat, s.c., 30 min before 1.25 mg/Kg apomorphine i.v., observed after 5, 10, 20 min
# [8] = rat, s.c., 30 min before conditioned stimulation, shuttle box
# [9] = rat, s.c., 30 min before 5 mg./kg. methamphetamine i.p., observed after 60 and 90 min
Structure (SMILES),"ED50 [1, 7]","ED50 [3, 8]","ED50 [5, 9]",other results
"CN(C)CCCN1c2ccccc2Sc2ccc(Cl)cc21 [Chlorpromazine, reference compound]",–,–,–,ED50 ([1]; Rattus norvegicus): 2.5 mg/kg; ED50 at 0.5 h [2]: 10 mg/kg; ED50 ([3]; Rattus norvegicus): 0.8 mg/kg; LD50 [4]: 59 mg/kg; ED50 ([5]; Rattus norvegicus): 3 mg/kg
"CCN(CC)CCNC(=O)c1cc(Cl)c(N)cc1OC [Metoclopramide, reference compound]",4.1 mg/kg,–,–,–
"COc1cc(C(=O)NC2CCN(Cc3ccccc3)C2)cc(OC)c1OC (stereo not drawn) [N-(1-benzyl-3-pyrrolidinyl)-3,4,5-trimethoxybenzamide, reference compound]",> 10 mg/kg,–,–,–
COc1cc(N)c(Cl)cc1C(=O)NC1CCN(Cc2ccccc2)C1 (stereo not drawn) [N-(1-benzyl-3-pyrrolidinyl)-4-amino-5-chloro-2-methoxybenzamide],0.22 mg/kg,0.3 mg/kg,0.72 mg/kg,–
COc1cc(N)c(Cl)cc1C(=O)NCC1CCC(C)N1Cc1ccccc1 (stereo not drawn) [N-(1-benzyl-5-methyl-2-pyrrolidinylmethyl)-4-amino-5-chloro-2-methoxybenzamide],0.18 mg/kg,0.18 mg/kg,1 mg/kg,ED50 at 0.5 h [2]: 30 mg/kg; LD50 [4]: 49 mg/kg
CCS(=O)(=O)c1ccc(OC)c(C(=O)NCC2CCC(C)N2Cc2ccccc2)c1.Cl (stereo not drawn) [N-(1-benzyl-5-methyl-2-pyrrolidinylmethyl)-5-ethylsulfonyl-2-methoxybenzamide hydrochloride],0.3 mg/kg,0.3 mg/kg,1.8 mg/kg,–
"COc1cc(N)c(Cl)cc1C(=O)NC1CCN(C2CCCCC2)C1 (stereo not drawn) [N-(1-cyclohexyl-3-pyrrolidinyl)-4-amino-5-chloro-2-methoxybenzamide, reference compound]",1.8 mg/kg,–,–,antiemetic activity (in words) [6]: strongest antiemetic activity
COc1cc(N)c(Cl)cc1C(=O)NC1CCN(Cc2ccc(Cl)cc2)C1 (stereo not drawn) [N-(1-p-chlorophenylmethyl-3-pyrrolidinyl)-4-amino-5-chloro-2-methoxybenzamide],0.18 mg/kg,0.1 mg/kg,–,–
CCN(CCNC(=O)c1cc(Cl)c(N)cc1OC)Cc1ccccc1 [N-[2-(N'-benzyl-N'-ethylamino)ethyl]-4-amino-5-chloro-2-methoxybenzamide],0.2 mg/kg,0.1 mg/kg,1.8 mg/kg,–
"COc1cc(C(=O)NCCN(C)Cc2ccccc2)cc(OC)c1OC [N-[2-(N'-benzyl-N'-methylamino)ethyl]-3,4,5-trimethoxybenzamide, reference compound]",> 30 mg/kg,–,–,–
COc1cc(N)c(Cl)cc1C(=O)NCCN(C)Cc1ccccc1 [N-[2-(N'-benzyl-N'-methylamino)ethyl]-4-amino-5-chloro-2-methoxybenzamide],0.54 mg/kg,0.2 mg/kg,3 mg/kg,ED50 at 0.5 h [2]: 60 mg/kg; LD50 [4]: 48 mg/kg
CCN(CCNC(=O)c1cc(Cl)c(N)cc1OC)Cc1ccc(F)cc1 [N-[2-(N'-ethyl-N'-p-fluorophenylmethylamino)ethyl]-4-amino-5-chloro-2-methoxybenzamide],0.18 mg/kg,–,–,–
CCN(CCNC(=O)c1cc(Cl)c(N)cc1OC)Cc1cccc(Cl)c1 [N-[2-(N'-m-chlorophenylmethyl-N'-ethylamino)ethyl]-4-amino-5-chloro-2-methoxybenzamide],0.3 mg/kg,–,1 mg/kg,–
CCN(CCNC(=O)c1cc(S(=O)(=O)CC)ccc1OC)Cc1ccc(Cl)cc1 [N-[2-(N'-p-chlorophenylmethyl-N'-ethylamino)ethyl]-3-ethylsulfonyl-6-methoxybenzamide hydrochloride],0.47 mg/kg,–,3 mg/kg,–
CCN(CCNC(=O)c1cc(Cl)c(N)cc1OC)Cc1ccc(Cl)cc1 [N-[2-(N'-p-chlorophenylmethyl-N'-ethylamino)ethyl]-4-amino-5-chloro-2-methoxybenzamide],0.18 mg/kg,0.1 mg/kg,1 mg/kg,–
CCN(CCNC(=O)c1cc(Cl)c(N)cc1OC)Cc1ccc(OC)cc1 [N-[2-(N'-p-methoxyphenylmethyl-N'-ethylamino)ethyl]-4-amino-5-chloro-2-methoxybenzamide],0.3 mg/kg,–,–,–
"CCN1CCCC1CNC(=O)c1cc(S(N)(=O)=O)ccc1OC (stereo not drawn) [Sulpiride, reference compound]",> 100 mg/kg,–,–,–
"CCN1CCCC1CNC(=O)c1cc(S(=O)(=O)CC)ccc1OC (stereo not drawn) [Sultopiride, reference compound]",18 mg/kg,–,–,–
